{
  "source": "ChEMBL document CHEMBL1150713",
  "about": "“Bioactive stilbenes of Scirpus maritimus” (J Nat Prod, 1987)",
  "key": {"[1]": {"test": "Cytotoxicity against mouse 3PS cells xenografted in mouse at 35 mg/kg relative to control", "type": "functional"}, "[2]": {"test": "Toxicity in Artemia salina", "type": "organism-based", "details": "in vivo"}, "Spodoptera frugiperda": {"system": "Spodoptera frugiperda", "test": "Antifeedant activity against Spodoptera frugiperda assessed as feeding ratio for 5 seconds", "type": "functional"}, "[3]": {"system": "Agrobacterium tumefaciens", "test": "Antitumor activity against Agrobacterium tumefaciens-induced crown gall tumor assessed as tumor inhibition in potato tubers by potato disk assay relative to control", "type": "functional"}, "[4]": {"test": "Cytotoxicity against mouse 3PS cells xenografted in mouse at 37 mg/kg relative to control", "type": "functional"}, "[5]": {"system": "Agrobacterium tumefaciens", "test": "Effect on Agrobacterium tumefaciens-induced crown gall tumor in potato tubers by potato disk assay relative to control", "type": "functional"}, "[6]": {"test": "Cytotoxicity against mouse 3PS cells xenografted in mouse at 30 mg/kg relative to control", "type": "functional"}, "[7]": {"test": "Cytotoxicity against mouse 3PS cells xenografted in mouse at 18 mg/kg relative to control", "type": "functional"}},
  "data": [
    {"compound": "Oc1cc(O)cc(/C=C/c2ccc(O)c(O)c2)c1", "note": "[PICEATANNOL]", "values": [
      {"measurement": "T/C", "setting": "[1]", "result": 131, "unit": "%"},
      {"measurement": "LC50", "setting": "[2]", "result": 278, "unit": "µg/mL"},
      {"measurement": "Ratio", "setting": "Spodoptera frugiperda", "result": 0.38},
      {"measurement": "inhibition (INH)", "setting": "[3]", "result": 17, "unit": "%"}
    ]},
    {"compound": "Oc1ccc(/C=C/c2cc(O)cc(O)c2)cc1", "note": "[RESVERATROL]", "values": [
      {"measurement": "T/C", "setting": "[4]", "result": 100, "unit": "%"},
      {"measurement": "Activity", "setting": "[5]", "result": 39, "unit": "%"}
    ]},
    {"compound": "Oc1ccc(/C=C/c2cc(O)cc3c2[C@H](c2cc(O)cc(O)c2)[C@@H](c2ccc(O)c(O)c2)O3)cc1", "note": "[SCIRPUSIN A]", "values": [
      {"measurement": "T/C", "setting": "[6]", "result": 103, "unit": "%"},
      {"measurement": "Activity", "setting": "[5]", "result": 17, "unit": "%"},
      {"measurement": "LC50", "setting": "[2]", "result": 488, "unit": "µg/mL"},
      {"measurement": "Ratio", "setting": "Spodoptera frugiperda", "result": 1}
    ]},
    {"compound": "Oc1cc(O)cc(C2c3c(/C=C/c4ccc(O)c(O)c4)cc(O)cc3OC2c2ccc(O)c(O)c2)c1", "note": "(centres undefined) [SCIRPUSIN B]", "values": [
      {"measurement": "T/C", "setting": "[7]", "result": 99, "unit": "%"},
      {"measurement": "LC50", "setting": "[2]", "result": 389, "unit": "µg/mL"},
      {"measurement": "Ratio", "setting": "Spodoptera frugiperda", "result": 0.23},
      {"measurement": "inhibition (INH)", "setting": "[3]", "result": 40, "unit": "%"}
    ]}
  ]
}
